In patent US9409892B2, “4-hydroxy-isoquinoline compounds as HIF hydroxylase inhibitors” (FIBROGEN, INC., priority 2012, dated 2016):

Key:
PHD1 (EGLN2) = PHD1 (EGLN2) (Homo sapiens (Human), UniProt Q96KS0); assay: HIF-PH assay (14CO2 capture), PHD1 enzyme inhibition; type: biochemical; settings: Table 1; for IC50: individual measurement, read-out: IC50 (μM) PHD1; for PHD2/PHD1: ratio of the IC50 of the compound for each enzyme
PHD2 (EGLN1) = PHD2 (EGLN1) (Homo sapiens (Human), UniProt Q9GZT9); assay: HIF-PH assay (14CO2 capture), PHD2 enzyme inhibition; type: biochemical; settings: Table 1; individual measurement; read-out: IC50 (μM) PHD2
Sequence of PHD2 (EGLN1) (Q9GZT9 whole entry): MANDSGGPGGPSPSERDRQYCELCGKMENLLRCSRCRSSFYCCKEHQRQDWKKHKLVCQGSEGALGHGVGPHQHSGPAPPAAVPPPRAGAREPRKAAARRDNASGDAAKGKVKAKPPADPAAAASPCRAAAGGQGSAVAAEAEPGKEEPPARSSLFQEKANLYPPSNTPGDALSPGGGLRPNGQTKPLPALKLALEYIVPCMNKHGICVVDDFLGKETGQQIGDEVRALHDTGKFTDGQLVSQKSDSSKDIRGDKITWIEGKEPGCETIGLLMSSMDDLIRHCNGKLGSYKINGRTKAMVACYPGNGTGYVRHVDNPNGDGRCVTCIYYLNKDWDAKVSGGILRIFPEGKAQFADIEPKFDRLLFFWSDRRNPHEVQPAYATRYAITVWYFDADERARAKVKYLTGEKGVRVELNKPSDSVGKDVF

Sequence of PHD1 (EGLN2) (Q96KS0 whole entry): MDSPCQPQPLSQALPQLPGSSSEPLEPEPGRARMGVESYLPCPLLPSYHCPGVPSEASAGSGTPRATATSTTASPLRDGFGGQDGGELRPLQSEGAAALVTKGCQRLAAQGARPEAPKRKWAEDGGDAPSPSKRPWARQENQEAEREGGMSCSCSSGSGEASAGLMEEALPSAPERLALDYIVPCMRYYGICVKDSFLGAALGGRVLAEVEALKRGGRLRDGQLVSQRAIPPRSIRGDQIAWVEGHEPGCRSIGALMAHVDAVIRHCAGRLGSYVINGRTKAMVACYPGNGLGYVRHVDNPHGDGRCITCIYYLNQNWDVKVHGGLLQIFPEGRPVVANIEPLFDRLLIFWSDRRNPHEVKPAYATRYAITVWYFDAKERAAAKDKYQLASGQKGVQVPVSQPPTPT

Row | SMILES | IC50 (PHD1 (EGLN2)) [µM] | PHD2/PHD1 (PHD1 (EGLN2)) | IC50 (PHD2 (EGLN1)) [µM]
1 | CC(C)(CNC(=O)c1nc(C#N)c2cc(-c3ccccc3)ccc2c1O)C(=O)O [Compound 138, 3-[(1-Cyano-4-hydroxy-7-phenyl-isoquinoline-3-carbonyl)-amino]-2,2-dimethyl-propionic acid] | 1.13 | 21 | 24.1
2 | CC(C)(CNC(=O)c1nc(C#N)c2cc(NC(=O)Nc3ccccc3)ccc2c1O)C(=O)O [Compound 140, 3{-[1-Cyano-4-hydroxy-7-(3-phenyl-ureido)-isoquinoline-3-carbonyl]-amino}-2,2-dimethyl-propionic acid] | 2.81 | 12 | 33.5
3 | O=C(O)CCNC(=O)c1nc(-c2ccccc2)c2cc(Oc3ccccc3)ccc2c1O [Compound 144, 3-[(4-Hydroxy-7-phenoxy-1-phenyl-isoquinoline-3-carbonyl)-amino]-propionic acid] | 6.4 | 5 | 31.7
4 | O=C(O)CCNC(=O)c1nc(C(F)(F)F)c2cc(Oc3ccccc3)ccc2c1O [Compound 145, 3-[(4-Hydroxy-7-phenoxy-1-trifluoromethyl-isoquinoline-3-carbonyl)-amino]-propionic acid] | 18.6 | 5 | 101
5 | CC(C)(CNC(=O)c1ncc2cc(Cc3ccccc3)ccc2c1O)C(=O)O [Compound 146, 3-[(7-Benzyl-4-hydroxy-isoquinoline-3-carbonyl)-amino]-2,2-dimethyl-propionic acid] | 23.7 | 8 | 181
6 | O=C(O)CCCNC(=O)c1ncc2cc(-c3ccc(F)cc3)ccc2c1O [Compound 148, 4-{[7-(4-Fluoro-phenyl)-4-hydroxy-isoquinoline-3-carbonyl]-amino}-butyric acid] | 2.88 | 9 | 24.5
7 | Cn1nc(C(F)(F)F)cc1-c1nc(C(=O)NCC(C)(C)C(=O)O)c(O)c2ccc(Oc3ccccc3)cc12 [Compound 151, 3-{[4-Hydroxy-1-(2-methyl-5-trilluoromethyl-2H-pyrazol-3-yl)-7-phenoxy-isoquinoline-3-carbonyl]-amino}-2,2-dimethyl-propionic acid] | 12.8 | 9 | 111
8 | CC(C)(CC(=O)O)NC(=O)c1nc(C#N)c2cc(OCc3ccccc3)ccc2c1O [Compound 152, 3-[(7-Benzyloxy-1-cyano-4-hydroxy-isoquinoline-3-carbonyl)-amino]-3-methyl-butyric acid] | 4.35 | 13 | 55.1
9 | CC(C)(CNC(=O)c1nc(C#N)c2cc(OCc3ccccc3)ccc2c1O)C(=O)O [Compound 153, 3-[(7-Benzyloxy-1-cyano-4-hydroxy-isoquinoline-3-carbonyl)-amino]-2,2-dimethyl-propionic acid] | 2.58 | 12 | 30.5
10 | Cc1ccccc1Oc1ccc2c(C#N)nc(C(=O)NCC(C)(C)C(=O)O)c(O)c2c1 [Compound 155, 3-[(1-Cyano-4-hydroxy-6-o-tolyloxy-isoquinoline-3-carbonyl)-amino]-2,2-dimethyl-propionic acid] | 5.25 | 8 | 42.1
11 | N#Cc1c2cc(Oc3ccccc3)ccc2c(O)c(C(=O)NCCCC(=O)O)[n+]1[O-] [Compound 158, 3-(3-Carboxypropylcarbamoyl)-1-cyano-4-hydroxy-7-phenoxyisoquinoline 2-oxide] | 1.66 | 13 | 21
12 | N#Cc1nc(C(=O)NCC2(C(=O)O)CCC2)c(O)c2ccc(S(=O)(=O)C3CCCCC3)cc12 [Compound 161, 1-{[(1-Cyano-7-cyclohexanesulfonyl-4-hydroxy-isoquinoline-3-carbonyl)-amino]-methyl}-cyclobutanecarboxylic acid] | 19.8 | 10 | 200
13 | CC(C)(CNC(=O)c1nc(C#N)c2cc(NC(=O)NCc3ccccc3)ccc2c1O)C(=O)O [Compound 162, 3-{[7-(3-Benzyl-ureido)-1-cyano-4-hydroxy-isoquinoline-3-carbonyl]-amino}-2,2-dimethyl-propionic acid] | 2.35 | 10 | 24.1
14 | N#Cc1nc(C(=O)NCCC[C@H](N)C(=O)O)c(O)c2ccc(Oc3ccccc3)cc12.O=C(O)C(F)(F)F [Compound 163, (S)-2-[Amino-5-(1-cyano-4-hydroxy-7-phenoxy-isoquinoline-3-carbonyl)-amino]-pentanoic acid 2,2,2-trifluoroacetic acid (1:1)] | 43.6 | 5 | > 200
15 | CC(C)(CNC(=O)c1nc(C#N)c2cc(Cc3ccccc3)ccc2c1O)C(=O)O [Compound 164, 3-[(7-Benzyl-1-cyano-4-hydroxy-isoquinoline-3-carbonyl)-amino]-2,2-dimethyl-propionic acid] | 1.35 | 14 | 18.6

Now from value to compound:

Row | IC50 (PHD1 (EGLN2)) [µM] | PHD2/PHD1 (PHD1 (EGLN2)) | IC50 (PHD2 (EGLN1)) [µM] | SMILES
16 | 0.35 | 8 | 2.88 | O=C(O)CCNC(=O)c1ncc2cc(S(=O)(=O)C3CCCCC3)ccc2c1O [Compound 135, 3-[(7-Cyclohexanesulfonyl-4-hydroxy-isoquinoline-3-carbonyl)-amino]-propionic acid]
17 | 7.21 | 28 | 200 | CC(C)(CNC(=O)c1nc(-c2cncc(F)c2)c2cc(Oc3ccccc3)ccc2c1O)C(=O)O [Compound 136, 3-{[1-(5-Fluoro-pyridin-3-yl)-4-hydroxy-7-phenoxy-isoquinoline-3-carbonyl]-amino}-2,2-dimethyl-propionic acid]
18 | 0.61 | 6 | 3.67 | N#Cc1nc(C(=O)NCCC(=O)O)c(O)c2ccc(-c3ccccc3)cc12 [Compound 137, 3-[(1-Cyano-4-hydroxy-7-phenyl-isoquinoline-3-carbonyl)-amino]-propionic acid]
19 | 5.65 | 35 | 200 | CC(C)(CNC(=O)c1nc(C#N)c2cc(NC(=O)c3ccc(F)cc3)ccc2c1O)C(=O)O [Compound 139, 3-{[1-cyano-7-(4-Fluoro-benzoylamino)-4-hydroxy-isoquinoline-3-carbonyl]-amino}-2,2-dimethyl-propionic acid]
20 | 3 | 13 | 37.8 | O=C(O)CCNC(=O)c1ncc2cc(NC(=O)Nc3ccc(F)cc3)ccc2c1O [Compound 141, 3-({7-[3-(4-Fluoro-phenyl)-ureido]-4-hydroxy-isoquinoline-3-carbonyl}-amino)-propionic acid]
21 | 4.12 | 14 | 56.4 | O=C(O)CCCNC(=O)c1ncc2cc(NC(=O)Nc3ccc(F)cc3)ccc2c1O [Compound 142, 4-([7-[3-(4-Fluoro-phenyl)-ureido]-4-hydroxy-isoquinoline-3-carbonyl]-amino)-butyric acid]
22 | 11.1 | 8 | 88.4 | CC(C)(CNC(=O)c1nc(-c2ccccc2)c2cc(Oc3ccccc3)ccc2c1O)C(=O)O [Compound 143, 3-[(4-Hydroxy-7-phenoxy-1-phenyl-isoquinoline-3-carbonyl)-amino]-2,2-dimethyl-propionic acid]
23 | 5.09 | 15 | 77 | O=C(O)CCCCNC(=O)c1nc(-c2cncc(F)c2)c2cc(Oc3ccccc3)ccc2c1O [Compound 147, 5-{[1-(5-Fluoro-pyridin-3-yl)-4-hydroxy-7-phenoxy-isoquinoline-3-carbonyl]-amino}-pentanoic acid]
24 | 18.5 | 5 | 87 | O=C(O)CCCCNC(=O)c1ncc2cc(-c3ccc(F)cc3)ccc2c1O [Compound 149, 5-{[7-(4-Fluoro-phenyl)-4-hydroxy-isoquinoline-3-carbonyl]-amino}-pentanoic acid]
25 | 22.9 | 5 | 114 | CC(C)(CNC(=O)c1ncc2cc(-c3ccc(F)cc3)ccc2c1O)C(=O)O [Compound 150, 3-{[7-(4-Fluoro-phenyl)-4-hydroxy-isoquinoline-3-carbonyl]-amino}-2,2-dimethyl-propionic acid]
26 | 0.11 | 18 | 1.9 | N#Cc1nc(C(=O)NCC2(C(=O)O)CCC2)c(O)c2ccc(Sc3ccccc3)cc12 [Compound 154, 1-{[(1-Cyano-4-hydroxy-7-phenylsulfanyl-isoquinoline-3-carbonyl)-amino]-methyl}-cyclobutanecarboxylic acid]
27 | 1.49 | 16 | 23.5 | CC(C)(CNC(=O)c1nc(C#N)c2cc(OC3CCCCC3)ccc2c1O)C(=O)O [Compound 156, 3-[(1-Cyano-7-cyclohexyloxy-4-hydroxy-isoquinoline-3-carbonyl)-amino]-2,2-dimethyl-propionic acid]
28 | 13.6 | 15 | 200 | CC(C)(CNC(=O)c1c(O)c2ccc(Oc3ccccc3)cc2c(C#N)[n+]1[O-])C(=O)O [Compound 157, 3-(2-Carboxy-2-methylpropylcarbamoyl)-1-cyano-4-hydroxy-7-phenoxyisoquinoline 2-oxide]
29 | 0.91 | 9 | 7.9 | N#Cc1nc(C(=O)NCC2(C(=O)O)CCC2)c(O)c2ccc(OC3CCCCC3)cc12 [Compound 159, 1-{[(1-Cyano-7-cyclohexyloxy-4-hydroxy-isoquinoline-3-carbonyl)-amino]-methyl}-cyclobutanecarboxylic acid]
30 | 17.4 | 12 | 200 | CC(C)(CNC(=O)c1nc(C#N)c2cc(S(=O)(=O)C3CCCCC3)ccc2c1O)C(=O)O [Compound 160, 3-[(1-Cyano-7-cyclohexanesulfonyl-4-hydroxy-isoquinoline-3-carbonyl)-amino]-2,2-dimethyl-propionic acid]
